Data: US7192606B2, “Drugs for treating viral infections” (priority 2004, dated 2007)
Converted amounts (≈) assume the structure as drawn. Read-outs that look alike come from different tables or passages of the source.

What was measured:
[1] = Neutral Red Uptake Assay (toxicity); conditions: human, stationary HFF cells
cowpox virus [2] = conditions: cited from earlier work
cowpox virus [3] = experiment: microbe, parasite or virus in culture; type: cell-based; conditions: HFF
cowpox virus [4] = type: cell-based
stationary HFF cells = experiment: Neutral Red Uptake Assay (toxicity); conditions: Neutral Red Uptake
Caco-2 cells = experiment: Caco-2 cell permeability assay; conditions: for A side % Remaining at 2 hrs: Caco-2, A side; for B side % Remaining at 2 hrs: Caco-2, B side; for A-B: Caco-2, apical to basolateral; for A-B / B-A: 25 microM, 2 hours, 37° C.; for B-A: Caco-2, basolateral to apical
[5] = Parallel Artificial Membrane Permeability Assay (PAMPA)-MS; conditions: hexadecane membrane layer, 4 hr, 50 microM in PBS, LC-MS
[6] = test system: variola virus (smallpox) isolates; type: cell-based
[7] = Caco-2 cell permeability assay; conditions: human, Caco-2
vaccinia virus = type: cell-based
cowpox virus [8] = type: cell-based; remark: listed apart in the source
cowpox virus [9] = test system: cowpox virus; design: species or system BALB/c mice; conditions: mouse, in vivo

Compound: Nc1ccn(C[C@@H](CO)OCP(=O)(O)O)c(=O)n1 [CDV, reference compound]
- CC50 [1]: > 100 µg/mL
- active concentration in these cells (cowpox virus [2]): about 12.0 microgram/mL
- EC90 (cowpox virus [3]): 18.7 µg/mL (≈ 67 µM)

Compound: O=S(=O)(NC12CC3CC(CC(C3)C1)C2)NS(=O)(=O)NC12CC3CC(CC(C3)C1)C2 [Example 1, N,N^1-Bis(tricyclo[3.3.1.1^3,7]dec-1-yl)imidodisulfamide]
- plaques at 1.0 microgram/mL (cowpox virus [4]): tiny relative to the untreated ones
- plaques at 3.0 microgram/mL (cowpox virus [4]): nearly completely eliminated
- EC50 (cowpox virus [4]; 3 days): 2.0 microgram/mL
- CC50 (stationary HFF cells): 78.9 microgram/mL
- CC50 (uninfected cells): 43.0 microgram/mL
- A side % Remaining at 2 hrs (Caco-2 cells): 85.05%
- B side % Remaining at 2 hrs (Caco-2 cells): 105.39%
- Ratio (Caco-2 cells; Caco-2, B-A / A-B): 2.1
- A-B (Caco-2 cells): 9.07
- B-A (Caco-2 cells): 18.85
- permeability [5]: 0.43 ×10⁻⁶ cm/s
- average EC50 [6]: 0.10 microgram/mL
- concentration up to which cell monolayers were healthy (monkey (Vero) cells): ≥ 30 microgram/mL

Compound: CC(C)NCC(O)COc1cccc2ccccc12 (stereo not drawn) [Propranolol, reference compound]
- efflux ratio at 2 h, 25 microM [7]: 1.9
- A side % Remaining at 2 hrs (Caco-2 cells): 68.60%
- B side % Remaining at 2 hrs (Caco-2 cells): 88.38%
- A-B (Caco-2 cells): 39.03
- B-A (Caco-2 cells): 72.42

Compound: Sodium N,N^1-(Tricyclo[3.3.1.1^3,7]dec-1-yl)imidodisulfamide [Example 11]
- CC50 (stationary HFF cells): 87.6 microgram/mL
- EC50 (vaccinia virus): EC50: 0.04 microgram/mL;
- EC90 (vaccinia virus): EC90: 0.11 microgram/mL;
- EC50 (cowpox virus [8]): EC50: 0.50 microgram/mL;
- EC90 (cowpox virus [8]): EC90: 2.10 microgram/mL;
- Lung titer on Day 3 (cowpox virus [9]): 6.6±1.3
